The values below come from ChEMBL document CHEMBL1142141, “Molecular mechanism of flucytosine resistance in Candida lusitaniae: contribution of the FCY2, FCY1, and FUR1 genes to 5-fluorouracil and fluconazole cross-resistance” (2007).

What all share (format): functional
The test system of assay [1] is Clavispora lusitaniae. The assay is described as follows: Antifungal activity against Candida lusitaniae 6936 by microdilution assay.
Assay [2] has as its system Clavispora lusitaniae. The assay is described as follows: Antifungal activity against Candida lusitaniae 6936 revertant fcy1delta::[FCY1-URA3] by microdilution assay. (In general: Broth dilution looks for growth in wells or tubes with falling amounts of substance.)
In assay [3] the test system is Clavispora lusitaniae. Description: Antifungal activity against Candida lusitaniae 6936 URA3[D95V] derived null mutant fcy2delta::URA3 by microdilution assay.
Assay [4] relates to Clavispora lusitaniae. Description: Antifungal activity against Candida lusitaniae 6936 URA3[D95V] derived null mutant fcy1delta::URA3 by microdilution assay.
Assay [5] deals with Clavispora lusitaniae. Description: Antifungal activity against Candida lusitaniae 6936 revertant fcy2delta::[FCY2-URA3] by microdilution assay.
Assay [6] deals with Clavispora lusitaniae. The assay is described as follows: Antifungal activity against Candida lusitaniae 6936 URA3[D95V] derived null mutant fur1delta::URA3 by microdilution assay.

Values after ≈ are worked out from the molar mass of the structure shown.

What is called MIC is the smallest concentration in the dilution series that meets the test's criterion for growth inhibition. Read a low MIC as a more susceptible organism. On to `O=c1[nH]cc(F)c(=O)[nH]1` [FLUOROURACIL], for which the MIC is ≤ 0.5 µg/mL against Clavispora lusitaniae [1]; ≤ 0.5 µg/mL with Clavispora lusitaniae [2]; ≤ 0.5 µg/mL against Clavispora lusitaniae [3]; ≤ 0.5 µg/mL in the assay on Clavispora lusitaniae [4]; ≤ 0.5 µg/mL against Clavispora lusitaniae [5]; ≥ 512 µg/mL in the assay with Clavispora lusitaniae [6].

On to `OC(Cn1cncn1)(Cn1cncn1)c1ccc(F)cc1F` [FLUCONAZOLE], for which the MIC against Clavispora lusitaniae [1], with Clavispora lusitaniae [2], with Clavispora lusitaniae [3], in the assay with Clavispora lusitaniae [4], against Clavispora lusitaniae [5] and in the assay with Clavispora lusitaniae [6] was 2 µg/mL (≈ 6.53 µM) throughout.

With `Nc1nc(=O)[nH]cc1F` [FLUCYTOSINE], the minimum inhibitory concentration (MIC) was ≤ 0.5 µg/mL in the assay with Clavispora lusitaniae [1]; ≤ 0.5 µg/mL against Clavispora lusitaniae [2]; 64 µg/mL (≈ 496 µM) against Clavispora lusitaniae [3]; 128 µg/mL (≈ 992 µM) in the assay with Clavispora lusitaniae [4]; ≤ 0.5 µg/mL against Clavispora lusitaniae [5]; ≥ 512 µg/mL in the assay with Clavispora lusitaniae [6].
